The text below walks through data of patent US20170015979A1 (Instituto Tecnológico y de Estudios Superiores de Monterrey, priority 2015, published 2017).

For assay [1], the system named is N. benthamiana leaf explants. The experiment in a line: Killing curve for tobacco leaf explants. The format is cell-based. As to conditions: for shoot induction observed (share of plates): after 30 days; for explants exhibiting necrosis: 200 μg/mL, after 7 days, MS solid medium. The text has this: FIG. 6. Doxycycline killing curve for N. benthamiana leaf explants.

In assay [2] the test system is Jalapeño hypocotyl, epicotyl and shoot tip tissues. Description: Sensitivity of Jalapeño explants. It counts as cell-based. As to conditions: 200 μg/mL; initially evaluated after 15 days.
Assay [3] concerns Kluyvermyces lactis. Description: Yeast sensitivity on YPGE agar. The format is cell-based. Here is the method: (§1) Example 4. […] From a single overnight grown colony of each yeast strain, 25 mL of yeast extract-peptone-dextrose (YPD) broth were inoculated and grown for 16 hours at 30° C. and 150 rpm.
Assay [4] has as its system Kluyveromyces marxianus. Description: Yeast sensitivity on YPGE agar. It counts as cell-based. The protocol:
as §1

The subject of assay [5] is Saccharomyces cerevisiae ATCC 44774. Description: Yeast sensitivity on YPGE agar. It counts as cell-based. Here is the method:
as §1

For assay [6], the system named is C. reinhardtii strain CC-849.
Experimental: Glass bead transformation C. reinhardtii strain CC-849 was transformed with supercoiled plasmid DNA of Atetx, Btetx, pKS-aphVIII or pSP124S (Table 4) by the glass bead method. Briefly, the algae were grown at 25° C. with a 18/6 (light/dark) photoperiod in TAP media to mid-log phase (1-2×10^6 cells/mL), the cells were harvested by centrifugation 5 min. at 5000 g, the growth medium was removed and fresh TAP was added to achieve a cell concentration of 2×10^8 cells/mL. 300 μL of the cell suspension were placed in a 1.5 mL centrifuge tube containing 0.3 g of sterile 0.4-0.6 mm diameter glass beads (Sigma, St. Louis, Mo.) and 1×10^−12 mols of the desired plasmid DNA. The cell/DNA/glass bead suspensions were vortexed 15 s at maximum power in a VWR mini vortex. The cells were transferred to a glass tube with 5 mL of fresh TAP media and incubated at 25° C. overnight with a 8/6 (light/dark) photoperiod. After 14 hours the cells were concentrated by centrifugation at 5,000 g for 15 minutes and resuspended in TAP media to yield either 3×10^7 cells/mL of pKS-aphVIII and pSP124S transformants and 2.5×10^6, 5×10^6, 1×10^7 or 3×10^7 cells/mL for tetx transformants. […] When colonies appeared, they were streaked on to selective TAP agar plates.
C. reinhardtii strain CC-849 was transformed with supercoiled plasmid DNA of AtetX and BtetX, by the glass bead method. […]
Assay [7] deals with Pichia pastoris. The experiment in a line: Yeast sensitivity on YPGE agar. Conditions: 10^6 cells plated. It counts as cell-based. The protocol: as §1
Where [8] appears, read: 10^5 cells plated, 2 days of incubation.

Several values for one entry are separate records, joined by “and”; a condition that tells them apart may be missing. Identical values can stand only once. Like-named read-outs stand apart in the source and are kept apart here.

With `CN(C)[C@@H]1C(O)=C(C(N)=O)C(=O)[C@@]2(O)C(O)=C3C(=O)c4c(O)cccc4[C@@](C)(O)[C@H]3C[C@@H]12` [tetracycline, Tetracycline], the “shoot induction observed (share of plates)” value in assay [1] (15 μg/mL) and in assay [1] (25 μg/mL) was 50% throughout. Besides, the explants exhibiting necrosis in assay [1] and in assay [2] was 100% each time. Also, the “concentration at which growth was inhibited” value is 750 µg/mL and 1000 µg/mL in assay [3] (setting [8]); 350 to 1000 µg/mL in assay [4] (setting [8]); 1000 µg/mL in assay [4] (10^6 cells plated); 500 µg/mL and 750 µg/mL and 1000 µg/mL in assay [5] (2 days of incubation, cell number not clearly stated). Also, the “decrease of number of positive colonies compared to 15 μg/mL” value in assay [6] (tetracycline 25 μg/mL for selection of primary transformants) and in assay [6] (tetracycline 50 μg/mL for selection of primary transformants) was “approximately 75%” throughout.

As for `C[C@H]1c2cccc(O)c2C(=O)C2=C(O)[C@]3(O)C(=O)C(C(N)=O)=C(O)[C@@H](N(C)C)[C@@H]3[C@@H](O)[C@@H]21` [doxycycline], the explants exhibiting necrosis in assay [1] and in assay [2] was 100% in each case. For the same compound, the “concentration at which growth was inhibited” value in assay [3] (10^6 cells plated) is 675 µg/mL and 1000 µg/mL; in assay [3] (10^7 cells plated) it was 1000 µg/mL; in assay [4] (10^6 cells plated), 675 µg/mL and 1000 µg/mL; in assay [4] (10^7 cells plated), 1000 µg/mL; in assay [7] it was 1000 µg/mL; in assay [5] (10^5 cells plated), 1000 µg/mL. For the same compound, the “concentration at which growth was inhibited” value in assay [5] (10^7 cells plated) was 1000 µg/mL.
